# Results taken from patent publication US12577227B2, “WDR5 inhibitors and modulators” (Vanderbilt University, priority 2019, dated 2026).
# Tested on: MV4:11 human cancer cell lines
# Experiment: Cellular viability / anti-proliferative activity (CellTiter-Glo)
# Assay type: cell-based
# Details: MV4-11, 120 h, MV-4-11 cells, 5 day protocol, mean of minimum two replicates, read-out: GI50 on cellular proliferation of MV4:11 human cancer cell lines
# Procedure: Cellular Viability of Human Tumor Cell Lines
# Anti-Proliferative Activity Using MLL-Harboring Cell Lines.
# MV-4-11 and K562 cells are grown in IMDM media supplemented with 10% FBS and […], Molm-13 cells are cultured in RPMI-1640 media supplemented with 10% FBS and 1% o penicillin/streptomycin. Viability assays are performed by dispensing 200 cells at 7200 cells/mL into each well of an opaque 384-well plate and adding compounds at the indicated concentrations in a final volume of 32 μL and a final concentration of DMSO of 0.3% for all samples. A certain range of compound concentrations is made through a series of 2-fold dilutions starting 30 μM at the highest, total 22 dilutions. After a set incubation period, 5 day protocol, the viability of cells in each well is assessed using the CellTiter-Glo assay (Promega), read on a 96 Microplane Luminometer (Cytation 3, BioTek). Serial dilutions of each cell type are performed in all assays to generate standard curves and the final densities of cells are determined within the dynamic range of the instrument. GI50 values are calculated based on XLfit software (IDBS, Guildford, UK) with Sigmoidal Dose-Response Model. Each compound is tested in minimum of two replicates. Data are expressed as mean.
row,SMILES,GI50 [µM]
1,"CCc1cc(C(=O)NC)c2nccc(N3CCOc4c(cc(Cn5ccnc5)cc4-c4cn(C)nc4C(F)(F)F)C3=O)c2c1 [Example 72, 4-(7-((1H-imidazol-1-yl)methyl)-9-(1-methyl-3-(trifluoromethyl)-1H-pyrazol-4-yl)-5-oxo-2,3-dihydrobenzo[f][1,4]oxazepin-4(5H)-yl)-6-ethyl-N-methylquinoline-8-carboxamide]",0.494
2,"CCc1cc(C(=O)NCCOC)c2nccc(N3CCOc4c(cc(Cn5ccnc5)cc4-c4cn(C)nc4C(F)(F)F)C3=O)c2c1 [Example 74, 4-(7-((1H-imidazol-1-yl)methyl)-9-(1-methyl-3-(trifluoromethyl)-1H-pyrazol-4-yl)-5-oxo-2,3-dihydrobenzo[f][1,4]oxazepin-4(5H)-yl)-6-ethyl-N-(2-methoxyethyl)quinoline-8-carboxamide]",0.458
3,"Cc1cc(C)nc(CN2CCOc3c(cc(Cn4ccnc4C)cc3-c3cccnc3C)C2=O)c1 [Example 44, 4-((4,6-Dimethylpyridin-2-yl)methyl)-7-((2-methyl-1H-imidazol-1-yl)methyl)-9-(2-methylpyridin-3-yl)-3,4-dihydrobenzo[f][1,4]oxazepin-5(2H)-one]",0.548
4,"Cc1cc(C)nc(CN2CCOc3c(cc(Cn4ccnc4C)cc3-c3cn(C)nc3C(F)(F)F)C2=O)c1 [Example 26, 4-((4,6-Dimethylpyridin-2-yl)methyl)-7-((2-methyl-1H-imidazol-1-yl)methyl)-9-(1-methyl-3-(trifluoromethyl)-1H-pyrazol-4-yl)-3,4-dihydrobenzo[f][1,4]oxazepin-5(2H)-one]",0.135
5,"Cn1cc(-c2cc(Cn3ccn(C)c3=N)cc3c(=O)n(-c4ccccc4-c4ccccc4)cnc23)c(C(F)(F)F)n1 [Example 24, 3-([1,1′-Biphenyl]-2-yl)-6-((2-imino-3-methyl-2,3-dihydro-1H-imidazol-1-yl)methyl)-8-(1-methyl-3-(trifluoromethyl)-1H-pyrazol-4-yl)quinazolin-4(3H)-one]",9.01
6,"Cc1cc(C)nc(CN2CCOc3c(cc(Cn4ccnc4C)cc3-c3cccnc3C(F)(F)F)C2=O)c1 [Example 42, 4-((4,6-Dimethylpyridin-2-yl)methyl)-7-((2-methyl-1H-imidazol-1-yl)methyl)-9-(2-(trifluoromethyl)pyridin-3-yl)-3,4-dihydrobenzo[f][1,4]oxazepin-5(2H)-one]",0.282
7,"Cc1cc(C)nc(CN2CCOc3c(cc(Cn4ccnc4C)cc3-c3sc(C)nc3C)C2=O)c1 [Example 43, 4-((4,6-Dimethylpyridin-2-yl)methyl)-9-(2,4-dimethylthiazol-5-yl)-7-((2-methyl-1H-imidazol-1-yl)methyl)-3,4-dihydrobenzo[f][1,4]oxazepin-5(2H)-one]",0.159
8,"COc1cc(Cn2cnc3c(-c4cn(C)nc4C(F)(F)F)cc(Cn4ccn(C)c4=N)cc3c2=O)cc(OC)c1 [Example 20, 3-(3,5-Dimethoxybenzyl)-6-((2-imino-3-methyl-2,3-dihydro-1H-imidazol-1-yl)methyl)-8-(1-methyl-3-(trifluoromethyl)-1H-pyrazol-4-yl)quinazolin-4(3H)-one]",0.63
9,"COc1ccnc(Cn2cnc3c(-c4cn(C)nc4C(F)(F)F)cc(Cn4ccnc4C)cc3c2=O)c1 [Example 55, 3-((4-Methoxypyridin-2-yl)methyl)-6-((2-methyl-1H-imidazol-1-yl)methyl)-8-(1-methyl-3-(trifluoromethyl)-1H-pyrazol-4-yl)quinazolin-4(3H)-one]",0.57
10,"COc1cc(CN2CC(=O)Nc3c(cc(Cn4ccnc4C)cc3-c3ccc(F)cc3C)C2=O)cc(OC)c1 [Example 28, 4-(3,5-Dimethoxybenzyl)-9-(4-fluoro-2-methylphenyl)-7-((2-methyl-1H-imidazol-1-yl)methyl)-3,4-dihydro-1H-benzo[e][1,4]diazepine-2,5-dione]",0.232
11,"COc1cc(Cn2cnc3c(-c4ccc(F)cc4C)cc(Cn4cnn(C)c4=N)cc3c2=O)cc(OC)c1 [Example 18, 3-(3,5-Dimethoxybenzyl)-8-(4-fluoro-2-methylphenyl)-6-((5-imino-1-methyl-1,5-dihydro-4H-1,2,4-triazol-4-yl)methyl)quinazolin-4(3H)-one]",0.672
12,"CCc1nccn1Cc1cc2c(c(-c3cn(C)nc3C(F)(F)F)c1)OCCN(Cc1cc(C)ccn1)C2=O [Example 37, 7-((2-Ethyl-1H-imidazol-1-yl)methyl)-9-(1-methyl-3-(trifluoromethyl)-1H-pyrazol-4-yl)-4-((4-methylpyridin-2-yl)methyl)-3,4-dihydrobenzo[f][1,4]oxazepin-5(2H)-one]",1.08

# Stronger by GI50, values ahead:
row,GI50 [µM],SMILES
1,0.095,"Cc1cc(C)nc(CN2CCOc3c(cc(Cn4ccnc4C)cc3-c3ccc(F)cc3Cl)C2=O)c1 [Example 48, 9-(2-Chloro-4-fluorophenyl)-4-((4,6-dimethylpyridin-2-yl)methyl)-7-((2-methyl-1H-imidazol-1-yl)methyl)-3,4-dihydrobenzo[f][1,4]oxazepin-5(2H)-one]"
2,0.092,"COc1cc(CN2CNc3c(cc(Cn4ccn(C)c4=N)cc3-c3ccc(F)cc3C)C2=O)cc(OC)c1 [Example 23, 3-(3,5-Dimethoxybenzyl)-8-(4-fluoro-2-methylphenyl)-6-((2-imino-3-methyl-2,3-dihydro-1H-imidazol-1-yl)methyl)-2,3-dihydroquinazolin-4(1H)-one]"
3,0.086,"COc1cc(CN2CCOc3c(cc(Cn4cnn(C)c4=N)cc3-c3ccc(F)cc3C)C2=O)cc(OC)c1 [Example 6, 4-(3,5-Dimethoxybenzyl)-9-(4-fluoro-2-methylphenyl)-7-((5-imino-1-methyl-1,5-dihydro-4H-1,2,4-triazol-4-yl)methyl)-3,4-dihydrobenzo[f][1,4]oxazepin-5(2H)-one]"
4,0.039,"CCn1cc(-c2cc(Cn3ccnc3C)cc3c2OCCN([C@H]2CCOc4ccc(OC)cc42)C3=O)c(C(F)(F)F)n1 [Example 64, (S)-9-(1-ethyl-3-(trifluoromethyl)-1H-pyrazol-4-yl)-4-(6-methoxychroman-4-yl)-7-((2-methyl-1H-imidazol-1-yl)methyl)-3,4-dihydrobenzo[f][1,4]oxazepin-5(2H)-one]"
5,0.029,"COc1ccc2c(c1)C(N1CCOc3c(cc(Cn4ccnc4C)cc3-c3cn(C)nc3C(F)(F)F)C1=O)CCC2 (stereo not shown) [Example 57, 4-(7-Methoxy-1,2,3,4-tetrahydronaphthalen-1-yl)-7-((2-methyl-1H-imidazol-1-yl)methyl)-9-(1-methyl-3-(trifluoromethyl)-1H-pyrazol-4-yl)-3,4-dihydrobenzo[f][1,4]oxazepin-5(2H)-one]"
6,0.022,"COc1cc(CN2CC(C)Oc3c(cc(Cn4ccn(C)c4=N)cc3-c3ccc(F)cc3C)C2=O)cc(OC)c1 (stereo not shown) [Example 17, 4-(3,5-Dimethoxybenzyl)-9-(4-fluoro-2-methylphenyl)-7-((2-imino-3-methyl-2,3-dihydro-1H-imidazol-1-yl)methyl)-2-methyl-3,4-dihydrobenzo[f][1,4]oxazepin-5(2H)-one]"
7,0.0035,"Cc1cc(C)nc(CN2CCOc3c(cc(Cn4ccn(C)c4=N)cc3-c3ccc(F)cc3C)C2=O)c1 [Example 12, 4-((4,6-Dimethylpyridin-2-yl)methyl)-9-(4-fluoro-2-methylphenyl)-7-((2-imino-3-methyl-2,3-dihydro-1H-imidazol-1-yl)methyl)-3,4-dihydrobenzo[f][1,4]oxazepin-5(2H)-one]"
